From US20220348558A1, “INHIBITORS OF ENCEPHALITIC ALPHAVIRUSES” (priority 2019, published 2022)
Like-named read-outs stand apart in the source and are kept apart here.

Experiments:
VEEV TC83 = test: microbe, parasite or virus in culture; assay type: cell-based; settings: Venezuelan equine encephalitis virus, Vero 76, 48 h, read-out: VEEV TC83 EC50 nM
WEEV California = test: microbe, parasite or virus in culture; assay type: cell-based; settings: Western equine encephalitis virus, Vero 76, 48 h, read-out: WEEV California EC50 nM
EEEV FL93-939 [1] = test: microbe, parasite or virus in culture; assay type: cell-based; settings: Eastern equine encephalitis virus, Vero 76, 48 h, read-out: EEEV FL93-939 EC50
EEEV BeAr 436087 = test: microbe, parasite or virus in culture; assay type: cell-based; settings: Eastern equine encephalitis virus, Vero 76, 48 h, read-out: EEEV BeAr 436087 EC50 nM
VEEV TrD = system: VEEV TrD; design: species or system BALB/C mice; settings: mouse, in vivo
EEEV FL93-939 [2] = system: EEEV FL93-939; design: species or system C57BL/6 mice; settings: mouse, in vivo

SMILES	EC50 (VEEV TC83)	EC50 (WEEV California)	EC50 (EEEV FL93-939 [1])	EC50 (EEEV BeAr 436087)	further results
COc1ccc(-n2c(C3CCCN3)nc3c(-c4ccc(C)nc4)cc(C#N)cc3c2=O)cc1F (centres unmarked) [Example 101, 3-(3-fluoro-4-methoxyphenyl)-8-(6-methylpyridin-3-yl)-4-oxo-2-(pyrrolidin-2-yl)-3,4-dihydroquinazoline-6-carbonitrile]	1 to 50 nM	1 to 50 nM	51 to 150 nM	51 to 150 nM	–
COc1ccc(-n2c([C@@H]3CCCN3C)nc3c(C)cc([N+](=O)[O-])cc3c2=O)cc1 [Example 58, (S)-3-(4-methoxyphenyl)-8-methyl-2-(1-methylpyrrolidin-2-yl)-6-nitroquinazolin-4 (3H)-one]	1 to 50 nM	1 to 50 nM	51 to 150 nM	51 to 150 nM	–
COc1ccc(-n2c([C@H]3CCCN3)nc3c(-c4ccc(C(F)(F)F)nc4)cc(C#N)cc3c2=O)cc1F [Example 100, (R)-3-(3-fluoro-4-methoxyphenyl)-4-oxo-2-(pyrrolidin-2-yl)-8-(6-(trifluoromethyl)pyridin-3-yl)-3,4-dihydroquinazoline-6-carbonitrile]	1 to 50 nM	1 to 50 nM	51 to 150 nM	51 to 150 nM	–
COc1ccc(-n2c([C@H]3CCCN3C)nc3ccc([N+](=O)[O-])cc3c2=O)cc1 [Example 10, (R)-3-(4-methoxyphenyl)-2-(1-methylpyrrolidin-2-yl)-6-nitroquinazolin-4 (3H)-one]	1 to 50 nM	151 to 500 nM	151 to 500 nM	51 to 150 nM	–
COc1ccc(-n2c([C@H]3C[C@H](F)CN3)nc3c(C)cc([N+](=O)[O-])cc3c2=O)cc1 [Example 61, 2-((2R,4S)-4-fluoropyrrolidin-2-yl)-3-(4-methoxyphenyl)-8-methyl-6-nitroquinazolin-4 (3H)-one]	1 to 50 nM	51 to 150 nM	51 to 150 nM	51 to 150 nM	melting point: 183.06 to 185.34 °C
COc1ccc(-n2c([C@H]3CCCN3)nc3c(C)cc([N+](=O)[O-])cc3c2=O)cc1 [Example 55, (R)-3-(4-methoxyphenyl)-8-methyl-6-nitro-2-(pyrrolidin-2-yl) quinazolin-4 (3H)-one]	1 to 50 nM	1 to 50 nM	51 to 150 nM	51 to 150 nM	day 14 % survival (VEEV TrD): 100%; survival rate (VEEV TrD; 12 mg/kg/day): 75%; survival rate (VEEV TrD; 24 mg/kg/day): 75%; survival rate (VEEV TrD; 48 mg/kg/day): 100%; % survival on day 21 (EEEV FL93-939 [2]; 12 mg/kg/day): 30%; % survival on day 21 (EEEV FL93-939 [2]; 25 mg/kg/day): 60%; % survival on day 21 (EEEV FL93-939 [2]; 50 mg/kg/day): 70%
COc1ccc(-n2c([C@H]3CCCN3)nc3c(-c4ccc(F)nc4)cc([N+](=O)[O-])cc3c2=O)cc1F [Example 89, (R)-3-(3-fluoro-4-methoxyphenyl)-8-(6-fluoropyridin-3-yl)-6-nitro-2-(pyrrolidin-2-yl) quinazolin-4 (3H)-one]	1 to 50 nM	1 to 50 nM	51 to 150 nM	51 to 150 nM	–
COc1ccc(-n2c([C@H]3CCCN3C)nc3c(C)cc([N+](=O)[O-])cc3c2=O)cc1 [Example 57, (R)-3-(4-methoxyphenyl)-8-methyl-2-(1-methylpyrrolidin-2-yl)-6-nitroquinazolin-4 (3H)-one]	51 to 150 nM	151 to 500 nM	51 to 150 nM	51 to 150 nM	–
COc1ccc(-n2c([C@H]3CCCN3)nc3c(-c4cccnc4)cc(C#N)cc3c2=O)cc1F [Example 107, (R)-3-(3-fluoro-4-methoxyphenyl)-4-oxo-8-(pyridin-3-yl)-2-(pyrrolidin-2-yl)-3,4-dihydroquinazoline-6-carbonitrile]	1 to 50 nM	1 to 50 nM	51 to 150 nM	1 to 50 nM	–
COc1ccc(-n2c([C@H]3CCCN3)nc3c(C)cc([N+](=O)[O-])cc3c2=O)cc1F [Example 59]	1 to 50 nM	1 to 50 nM	51 to 150 nM	51 to 150 nM	–
COc1ccc(-n2c([C@H]3C[C@H](F)CN3)nc3c(-c4cccnc4)cc([N+](=O)[O-])cc3c2=O)cc1 [Example 86, 2-((2R,4S)-4-fluoropyrrolidin-2-yl)-3-(4-methoxyphenyl)-6-nitro-8-(pyridin-3-yl) quinazolin-4 (3H)-one]	1 to 50 nM	1 to 50 nM	51 to 150 nM	51 to 150 nM	–
CN[C@H](C)c1nc2ccc([N+](=O)[O-])cc2c(=O)n1-c1ccc(OC)cc1 [Example 207, (R)-3-(4-methoxyphenyl)-2-(1-(methylamino)ethyl)-6-nitroquinazolin-4 (3H)-one]	51 to 150 nM	151 to 500 nM	–	–	–
COc1ccc(-n2c([C@H]3CCNC3)nc3ccc([N+](=O)[O-])cc3c2=O)cc1 [Example 18, (S)-3-(4-methoxyphenyl)-6-nitro-2-(pyrrolidin-3-yl) quinazolin-4 (3H)-one]	1 to 50 nM	151 to 500 nM	151 to 500 nM	51 to 150 nM	–
Cc1ccc(-c2cc(C#N)cc3c(=O)n(-c4ccc(N(C)C)c(F)c4)c(C4CCCN4)nc23)cn1 (centres unmarked) [Example 145, 3-(4-(Dimethylamino)-3-fluorophenyl)-8-(6-methylpyridin-3-yl)-4-oxo-2-(pyrrolidin-2-yl)-3,4-dihydroquinazoline-6-carbonitrile]	1 to 50 nM	151 to 500 nM	–	–	–
COc1ccc(-n2c(C3CCCN3C3CCOCC3)nc3ccc(F)c(F)c3c2=O)cc1 (stereo in doubt) [Example 29, (S)-5,6-difluoro-3-(4-methoxyphenyl)-2-(1-(tetrahydro-2H-pyran-4-yl)pyrrolidin-2-yl) quinazolin-4 (3H)-one]	> 1000 nM	> 1000 nM	–	–	–
COc1c(F)cc(-n2c(C3CCCN3)nc3c(-c4ccc(C#CCO)cc4)cc(C#N)cc3c2=O)cc1F (centres unmarked) [Example 169, 3-(3,5-difluoro-4-methoxyphenyl)-8-(4-(3-hydroxyprop-1-yn-1-yl)phenyl)-4-oxo-2-(pyrrolidin-2-yl)-3,4-dihydroquinazoline-6-carbonitrile]	51 to 150 nM	51 to 150 nM	–	–	–
COc1c(F)cc(-n2c(C3CCCN3)nc3c(-c4ccnc(C)c4)cc(C#N)cc3c2=O)cc1F (centres unmarked) [Example 155, 3-(3,5-Difluoro-4-methoxyphenyl)-8-(2-methylpyridin-4-yl)-4-oxo-2-(pyrrolidin-2-yl)-3,4-dihydroquinazoline-6-carbonitrile]	1 to 50 nM	1 to 50 nM	–	–	–
Cc1ccc(-c2cc(C#N)cc3c(=O)n(-c4ccc(O)c(F)c4)c([C@H]4CCCN4)nc23)cn1 [Example 167, (R)-3-(3-fluoro-4-hydroxyphenyl)-8-(6-methylpyridin-3-yl)-4-oxo-2-(pyrrolidin-2-yl)-3,4-dihydroquinazoline-6-carbonitrile]	51 to 150 nM	151 to 500 nM	–	–	–
